Laboratory results reported in ChEMBL document CHEMBL3832552, “DailyMed|setid=e3780ba1-46ef-410c-b2fc-f1ffbfb598f3 | SULAR - nisoldipine tablet, film coated, extended release|Physicians Total Care, Inc”.

Assay: Evaluation of pharmacokinetic parameters for Nisoldipine following oral administration of 17 to 51 mg of Nisoldipine extended release tablets.
Format: ADME, organism-based
Settings: human, in vivo, dose 17-51 mg, dosed compound id 7, dosed compound name NISOLDIPINE, tissue Plasma

COC(=O)C1=C(C)NC(C)=C(C(=O)OCC(C)C)C1c1ccccc1[N+](=O)[O-] (stereo not drawn) [NISOLDIPINE]
Tmax: 9.2 h | bioavailability: 5% | half-life (read-out: t1/2-elimination (converted)): 13.7 h
